As a reminder, the IC50 is the concentration that inhibits the measured activity by half.

The source made the active and inactive calls. The calls are words filed in the database; no cut-off is given here. A value given as a limit tells only on which side of the number the result lay.

The target of assay [1] is Apoptosis regulator Bcl-2 (Homo sapiens, UniProt P10415). Put plainly: Inhibition in GST-tagged Bcl2 using [FAM]-IWIAQELRRIGDEFNAYY-NH2 as substrate after 60 mins by fluorescence polarization assay.
Sequence of Apoptosis regulator Bcl-2 (P10415 whole entry): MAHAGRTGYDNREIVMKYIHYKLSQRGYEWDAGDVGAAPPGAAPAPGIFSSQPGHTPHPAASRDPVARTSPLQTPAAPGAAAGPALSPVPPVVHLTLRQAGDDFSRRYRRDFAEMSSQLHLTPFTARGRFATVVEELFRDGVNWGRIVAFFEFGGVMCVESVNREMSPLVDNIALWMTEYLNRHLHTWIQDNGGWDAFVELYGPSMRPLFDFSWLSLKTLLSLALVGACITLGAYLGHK
The target in the next assay is Bcl-2-like protein 1 (Homo sapiens, UniProt Q07817). Nature of the assay: Inhibition of Bcl-XL using fluoresceinated 18-mer Bim as substrate after 60 mins by FRET analysis.
Sequence of Bcl-2-like protein 1 (Q07817 whole entry): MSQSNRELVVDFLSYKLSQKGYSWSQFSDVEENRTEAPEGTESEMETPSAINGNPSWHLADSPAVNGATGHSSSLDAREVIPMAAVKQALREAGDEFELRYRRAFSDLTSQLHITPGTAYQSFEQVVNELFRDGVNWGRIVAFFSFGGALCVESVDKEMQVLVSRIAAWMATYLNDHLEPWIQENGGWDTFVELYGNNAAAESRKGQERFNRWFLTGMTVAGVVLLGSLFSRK
The test system of assay [2] is SUD4. Nature of the assay: Induction of apoptosis in human SU-DHL4 cells assessed as cytochrome c release at 10 uM after 24 hrs by Western blot analysis. The class given is functional, cell-based. (A western blot detects proteins with antibodies after separation by electrophoresis.)
Assay [3] deals with SUD4. Nature of the assay: Induction of apoptosis in human SU-DHL4 cells assessed as BAK oligomerization at 10 uM after 24 hrs by Western blot analysis. It is filed as functional, cell-based.
Assay [4] can be described thus: Antiproliferative activity against human SU-DHL4 cells after 72 hrs by Cell-Titer Glo assay in presence of 2% FBS. It is filed as functional, cell-based, SUD4. The settings on record: SU-DHL-4, 72 h.
Assay [5] has as its system MV4-11. Nature of the assay: Antiproliferative activity against human MV411 cells after 72 hrs by Cell-Titer Glo assay in presence of 2% FBS. It is filed as functional, cell-based. Conditions: MV4-11, 72 h.
Assay [6] is described as follows: Antiproliferative activity against human SU-DHL4 cells after 72 hrs by Cell-Titer Glo assay in presence of 10% FBS. It is filed as functional, cell-based, SUD4. The settings on record: SU-DHL-4, 72 h.
The subject of assay [7] is MV4-11. Nature of the assay: Antiproliferative activity against human MV411 cells after 72 hrs by Cell-Titer Glo assay in presence of 10% FBS. The class given is functional, cell-based. The settings on record: MV4-11, 72 h.
Assay [8] has as its system SUD4. Nature of the assay: Induction of apoptosis in human SU-DHL4 cells assessed as cytochrome c release at 0.1 to 10 uM after 24 hrs by Western blot analysis. It is filed as functional, cell-based.
Assay [9] concerns SUD4. Put plainly: Induction of apoptosis in human SU-DHL4 cells assessed as BAK oligomerization at 0.1 to 10 uM after 24 hrs by Western blot analysis. The class given is functional, cell-based.

As to `CCCCN(CCCC)C(=O)c1nn(-c2ccc(NS(=O)(=O)c3cc(Cl)cc(Cl)c3O)cc2C(=O)N2CCc3ccccc3C2)c(C)c1Cl`, the values for the IC50 (in assay [1]; at Bcl-2-like protein 1) were 910 nM and 4300 nM, respectively.

As for `CCCCN(CCCC)C(=O)c1nn(-c2ccc(C(=O)NS(=O)(=O)c3ccc4c(c3)CCN4Cc3ccc(Cl)c(Cl)c3)cc2C(=O)N2CCc3ccccc3C2)c(C)c1Cl`, the IC50 in [1] was 16 nM; at Bcl-2-like protein 1, 44 nM; in [4] it was over 10000 nM; in the assay with MV4-11 [5], over 10000 nM; in assay [6] it was over 10000 nM; in the assay on MV4-11 [7], over 10000 nM. For the same molecule, the result in the assay with SUD4 [2] and in the assay on SUD4 [3] was Active.

Turning to `CCCCN(CCCC)C(=O)c1nn(-c2ccc(C(=O)NS(=O)(=O)c3ccc4ccccc4c3)cc2C(=O)N2CNc3ccccc3C2)c(C)c1Cl`, the IC50 (in assay [1]; at Bcl-2-like protein 1) was 26 nM in each case.

In the case of `CCCCN(CCCC)C(=O)c1nn(-c2ccc(C(=O)NS(=O)(=O)c3ccc4ccc(OCCN5CCOCC5)cc4c3)cc2C(=O)N2CCc3ccccc3C2)c(C)c1Cl`, the IC50 in assay [1] was found to be 400 nM; on Bcl-2-like protein 1, 54 nM.

The molecule `CCCCN(CCCC)C(=O)c1nn(-c2ccc(C(=O)NS(=O)(=O)c3ccc4ccccc4c3)cc2C(=O)N2COc3ccccc3C2)c(C)c1Cl` yielded an IC50 at Bcl-2-like protein 1 of 62 nM.

Consider `CCCCN(CCCC)C(=O)c1nn(-c2ccc(C(=O)NS(=O)(=O)c3ccc4ccccc4c3)cc2C(=O)N2Cc3ccccc3C[C@H]2COCCCOC)c(C)c1Cl`, for which the IC50 in [1] was 22 nM; on Bcl-2-like protein 1, 29 nM; in assay [4] it was 5400 nM; with MV4-11 [5], 2800 nM; in assay [6], over 10000 nM; in the assay with MV4-11 [7], over 10000 nM.

Turning to `CCCCN(CCCC)C(=O)c1nn(-c2ccc(C(=O)NS(=O)(=O)c3ccc4ccccc4c3)cc2C(=O)N2Cc3ccccc3C[C@H]2CN)c(C)c1Cl`, the IC50 in [1] is 9 nM; in assay [4] it was over 10000 nM; in the assay on MV4-11 [5], 8500 nM; in [6], over 10000 nM; with MV4-11 [7], over 10000 nM. Also, the result with SUD4 [8] and in the assay with SUD4 [9] was Active.

On Bcl-2-like protein 1, `CCCCN(CCCC)C(=O)c1nn(-c2ccc(C(=O)NS(=O)(=O)c3ccc4ccc(I)cc4c3)cc2C(=O)N2CCc3ccccc3C2)c(C)c1Cl` came in with an IC50 of 47 nM.

`CCCCN(CCCC)C(=O)c1nn(-c2ccc(C(=O)NS(=O)(=O)c3ccc4cccc(S(=O)(=O)CC)c4c3)cc2C(=O)N2CCc3ccccc3C2)c(C)c1Cl`: the results for the IC50 (in assay [1]; against Bcl-2-like protein 1) were 180 nM and 150 nM, respectively.

In the case of `CCCCN(CCCC)C(=O)c1nn(-c2ccc(C(=O)NS(=O)(=O)c3ccc4cccc(OCc5ccc(C(=O)O)cc5)c4c3)cc2C(=O)N2CCc3ccccc3C2)c(C)c1Cl`, the IC50 came to 15 nM in [1] and 17 nM at Bcl-2-like protein 1.

Take `CCCCN(CCCC)C(=O)c1nn(-c2ccc(C(=O)NS(=O)(=O)c3ccc4ccccc4c3)cc2C(=O)N2Cc3ccccc3C[C@H]2CN2CCOCC2)c(C)c1Cl`: the IC50 in assay [1] was 14 nM; against Bcl-2-like protein 1, 16 nM; in assay [4], 6300 nM; in the assay with MV4-11 [5], 3000 nM; in [6], over 10000 nM; in the assay with MV4-11 [7] it was over 10000 nM.

With `CCCCN(CCCC)C(=O)c1nn(-c2ccc(C(=O)NS(=O)(=O)c3ccc4ccccc4c3)cc2C(=O)N2Cc3ccccc3C[C@H]2CO)c(C)c1Cl`, the IC50 in [1] is 35 nM; in assay [4], over 10000 nM; in the assay with MV4-11 [5] it was over 10000 nM; in assay [6], over 10000 nM; in the assay on MV4-11 [7] it was over 10000 nM. In addition, the result in the assay on SUD4 [8] and in the assay with SUD4 [9] was Active.

For `CCCCN(CCCC)C(=O)c1nn(-c2ccc(C(=O)NS(=O)(=O)c3ccc4ccccc4c3)cc2C(=O)N2Cc3ccccc3C[C@H]2CN2CCN(C)CC2)c(C)c1Cl`, the IC50 in assay [1] was 140 nM; on Bcl-2-like protein 1, 22 nM; in assay [4], 9700 nM; with MV4-11 [5], 4800 nM; in assay [6], over 10000 nM; with MV4-11 [7], over 10000 nM.

`CC1(C)CCC(c2ccc(Cl)cc2)=C(CN2CCN(c3ccc(C(=O)NS(=O)(=O)c4ccc(N[C@H](CCN5CCOCC5)CSc5ccccc5)c(S(=O)(=O)C(F)(F)F)c4)cc3)CC2)C1`: the result with SUD4 [8] and in the assay on SUD4 [9] was Active.

Consider `CCCCN(CCCC)C(=O)c1nn(-c2ccc(C(=O)NS(=O)(=O)c3ccc4ccccc4c3)cc2C(=O)N2CCc3ccccc3C2)c(C)c1Cl`, for which the figures for the IC50 (in assay [1]; at Bcl-2-like protein 1) were 32 nM and 24 nM, respectively.

`CCCCN(CCCC)C(=O)c1nn(-c2ccc(C(=O)NS(=O)(=O)c3ccc4ccccc4c3)cc2C(=O)N2Cc3ccccc3C[C@H]2CN2CCCC2)c(C)c1Cl`: the IC50 in assay [1] was 47 nM; on Bcl-2-like protein 1, 19 nM; in [4], 1800 nM; in the assay on MV4-11 [5] it was 1500 nM; in [6], over 10000 nM; in the assay with MV4-11 [7], over 10000 nM.

As for `CCCCN(CCCC)C(=O)c1nn(-c2ccc(C(=O)NS(=O)(=O)c3ccc4c(c3)CCN4CC)cc2C(=O)N2CCc3ccccc3C2)c(C)c1Cl`, the values for the IC50 (in assay [1]; at Bcl-2-like protein 1) were 78 nM and 17 nM, respectively.

For the molecule `CCCCN(CCCC)C(=O)c1nn(-c2ccc(C(=O)NS(=O)(=O)c3ccc4c(c3)CCN4)cc2C(=O)N2CCc3ccccc3C2)c(C)c1Cl`, the IC50 in assay [1] stood at 32 nM; against Bcl-2-like protein 1, 23 nM.

As for `CCCCN(CCCC)C(=O)c1nn(-c2ccc(C(=O)NS(=O)(=O)c3ccc4c(c3)CCN4C(=O)c3ccc(Cl)c(Cl)c3)cc2C(=O)N2CCc3ccccc3C2)c(C)c1Cl`, the IC50 came out at 280 nM in assay [1] and 550 nM against Bcl-2-like protein 1.

Consider `O=C(c1ccc(CN(Cc2ccc(F)cc2)S(=O)(=O)c2cc(Cl)cc(Cl)c2O)cc1)N(Cc1ccc(F)cc1)Cc1cc(Cl)cc(Cl)c1`, for which the results for the IC50 (in assay [1]; against Bcl-2-like protein 1) were 35 nM and over 30000 nM, respectively.

Regarding `CCCCN(CCCC)C(=O)c1nn(-c2ccc(C(=O)NS(=O)(=O)c3ccc4ccccc4c3)cc2C(=O)N2Cc3ccccc3C[C@H]2COCCN(C)C)c(C)c1Cl`, the results for the IC50 (in assay [1]; at Bcl-2-like protein 1) were 37 nM and 47 nM, respectively.

For the molecule `CCCCN(CCCC)C(=O)c1nn(-c2ccc(C(=O)NS(=O)(=O)c3ccc4ccccc4c3)cc2C(=O)N2CCc3ccccc3C2C)c(C)c1Cl` (stereo not given), the figures for the IC50 (in assay [1]; at Bcl-2-like protein 1) were 710 nM and 590 nM, respectively.

With `CCCCN(CCCC)C(=O)c1nn(-c2ccc(C(=O)NS(=O)(=O)c3ccc4cccc(OCCN5CCOCC5)c4c3)cc2C(=O)N2CCc3ccccc3C2)c(C)c1Cl`, it took 41 nM to reach half-maximal inhibition at Bcl-2-like protein 1 (IC50).

The values above are taken from ChEMBL document CHEMBL2029223, “Identification of a phenylacylsulfonamide series of dual Bcl-2/Bcl-xL antagonists” (Bioorg Med Chem Lett, 2012).
